This assay addresses T1, F508del (Homo sapiens, UniProt P13569, DEL508-508).
T1 construct: expressed in transfected cells
Nature of the assay: Protocol 2: FRET membrane potential optical assay (VIPR), identification of correction compounds. The assay is classed as cell-based. The method in brief:
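Mouse NIH3T3 cells, stable F508del; cpd 16 hrs, 37° C., serum-free; pos ctrl 27° C. 16 hrs. Rinse in Krebs Ringers, dye load, then add 10 μM forskolin + 20 μM genistein with Cl^−-free (gluconate) medium; depolarization by FRET voltage dyes.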

Where [1] appears, read: Table 3, compounds of Table 1 as modulators of CFTR activity, protocol not stated.
Where [2] appears, read: F508del CFTR modulator activity, compounds of Table 1, read-out: EC30.

Like-named read-outs stand apart in the source and are kept apart here.

T1 sequence (P13569 with tags, fused parts or gaps DEL508-508): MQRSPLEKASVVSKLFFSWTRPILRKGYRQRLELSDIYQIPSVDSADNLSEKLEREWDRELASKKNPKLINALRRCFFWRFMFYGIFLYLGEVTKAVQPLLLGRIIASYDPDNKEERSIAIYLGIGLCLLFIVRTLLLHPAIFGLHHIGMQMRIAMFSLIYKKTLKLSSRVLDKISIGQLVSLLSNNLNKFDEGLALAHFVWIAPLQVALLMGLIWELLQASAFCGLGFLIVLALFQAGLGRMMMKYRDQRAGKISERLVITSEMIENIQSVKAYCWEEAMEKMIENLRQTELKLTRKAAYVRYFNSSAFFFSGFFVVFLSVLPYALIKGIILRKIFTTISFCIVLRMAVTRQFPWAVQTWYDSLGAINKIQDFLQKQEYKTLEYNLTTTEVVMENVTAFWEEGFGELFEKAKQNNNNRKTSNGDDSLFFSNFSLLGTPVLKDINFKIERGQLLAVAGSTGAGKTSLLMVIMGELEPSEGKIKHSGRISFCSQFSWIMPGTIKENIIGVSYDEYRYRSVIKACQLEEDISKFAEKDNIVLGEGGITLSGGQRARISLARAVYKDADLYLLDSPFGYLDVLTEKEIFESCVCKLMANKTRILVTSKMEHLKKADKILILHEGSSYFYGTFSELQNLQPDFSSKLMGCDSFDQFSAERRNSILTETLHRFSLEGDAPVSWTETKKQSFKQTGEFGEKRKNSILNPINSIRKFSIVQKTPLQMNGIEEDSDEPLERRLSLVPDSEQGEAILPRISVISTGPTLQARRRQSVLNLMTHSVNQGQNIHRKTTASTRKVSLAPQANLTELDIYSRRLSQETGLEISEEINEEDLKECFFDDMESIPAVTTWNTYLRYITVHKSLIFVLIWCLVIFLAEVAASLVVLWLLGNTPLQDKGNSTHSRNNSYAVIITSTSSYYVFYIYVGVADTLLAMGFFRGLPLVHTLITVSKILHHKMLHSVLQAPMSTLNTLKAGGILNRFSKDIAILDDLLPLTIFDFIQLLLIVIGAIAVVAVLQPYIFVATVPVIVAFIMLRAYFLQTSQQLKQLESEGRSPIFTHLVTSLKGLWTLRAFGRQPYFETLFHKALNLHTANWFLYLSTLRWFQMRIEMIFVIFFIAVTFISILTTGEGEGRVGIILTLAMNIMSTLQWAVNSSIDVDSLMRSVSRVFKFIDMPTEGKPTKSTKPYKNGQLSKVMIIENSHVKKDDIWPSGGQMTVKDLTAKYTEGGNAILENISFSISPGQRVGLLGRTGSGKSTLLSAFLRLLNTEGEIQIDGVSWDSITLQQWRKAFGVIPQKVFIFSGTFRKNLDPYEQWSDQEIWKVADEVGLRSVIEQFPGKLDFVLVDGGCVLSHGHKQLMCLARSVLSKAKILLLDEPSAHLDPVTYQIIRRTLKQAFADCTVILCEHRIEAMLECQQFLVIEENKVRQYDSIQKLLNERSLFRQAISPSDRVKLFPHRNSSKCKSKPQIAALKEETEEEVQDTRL

What is called EC30 is the point of the concentration-response curve where the effect stands at 30%. As for `Cc1cc(C)c(CN2Cc3ccccc3C2C(=O)NS(=O)(=O)c2cccc(O)c2)c(C)c1` (centres unmarked) [Compound 254, N-(3-hydroxyphenyl)sulfonyl-2-[(2,4,6-trimethylphenyl)methyl]isoindoline-1-carboxamide], the EC30 result under setting [1] is “++ (“++” means between 3 uM and 10 uM)”.

Regarding `CC1CN(c2nc(-c3ccc(NC(C)C)nc3)ccc2C(=O)NS(=O)(=O)c2cccc(N)n2)C(C)(C)C1` (centres unmarked) [Compound 437, N-[(6-amino-2-pyridyl)sulfonyl]-6-[16-(isopropylamino)-3-pyridyl]-2-(2,2,4-trimethylpyrrolidin-1-yl)pyridine-3-carboxamide], the EC30 result under setting [1] is listed as “+++ (“+++” means <3 uM)”. On to `CC(=O)Nc1cccc(Oc2cccc(S(=O)(=O)NC(=O)c3cccnc3N3CC(C)CC3(C)C)n2)c1` (centres unmarked) [Compound 2433, N—[[6-(3-acetamidophenoxy)-2-pyridyl]sulfonyl]-2-(2,2,4-trimethylpyrrolidin-1-yl)pyridine-3-carboxamide], for which, under setting [2], the EC30 is 3 to 10 µM. The same measure, in the same setting: next, `Cc1cc(O)cc(-c2ccc(C(=O)NS(=O)(=O)c3cccc(N)n3)c(N3C[C@@H](C)CC3(C)C)n2)c1` [Compound 2232, N-[(6-amino-2-pyridyl)sulfonyl]-6-(3-hydroxy-5-methyl-phenyl)-2-[(4S)-2,2,4-trimethylpyrrolidin-1-yl]pyridine-3-carboxamide]: 3 to 10 µM; `CC(C)COc1cc(F)cc(-c2cc(N3C[C@@H](C)CC3(C)C)c(C(=O)NS(=O)(=O)c3cccc(N)n3)cn2)c1` [Compound 2679, N-[(6-amino-2-pyridyl)sulfonyl]-6-(3-fluoro-5-isobutoxy-phenyl)-4-[(4S)-2,2,4-trimethylpyrrolidin-1-yl]pyridine-3-carboxamide]: 3 to 10 µM; `COc1ccc(COc2cccc(S(=O)(=O)NC(=O)c3ccc(C(C)(C)C)nc3N3CC(C)CC3(C)C)n2)cc1` (centres unmarked) [Compound 2713]: less than 3 µM. For `CC1CN(c2ncccc2C(=O)NS(=O)(=O)c2cccc(N(C)Cc3cccc(Cl)c3)n2)C(C)(C)C1` (centres unmarked) [Compound 2378, N—[[6-[(3-chlorophenyl)methyl-methyl-amino]-2-pyridyl]sulfonyl]-2-(2,2,4-trimethylpyrrolidin-1-yl)pyridine-3-carboxamide], the EC30 under setting [2] was less than 3 µM. As to `COc1ccc(F)cc1-c1ccc(C(=O)NS(=O)(=O)c2cccc(N)n2)c(Oc2c(C)cc(C)cc2C)n1` [Compound 700, N-[(6-amino-2-pyridyl)sulfonyl]-6-(5-fluoro-2-methoxy-phenyl)-2-(2,4,6-trimethylphenoxy)pyridine-3-carboxamide], the EC30 entry under setting [1] was “+++ (“+++” means <3 uM)”. In the case of `CC(C)CCOc1cccc(S(=O)(=O)NC(=O)c2ccc(C(C)(C)C)nc2N2CC(C)CC2(C)C)n1` (centres unmarked) [Compound 2716], the EC30 under setting [2] is less than 3 µM.

`CC1CN(c2ncccc2C(=O)NS(=O)(=O)c2cccc(NC3CCCC3)n2)C(C)(C)C1` (centres unmarked) [Compound 2053, N—[[6-(cyclopentylamino)-2-pyridyl]sulfonyl]-2-(2,2,4-trimethylpyrrolidin-1-yl)pyridine-3-carboxamide]: the EC30 under setting [2] was less than 3 µM. Turning to `COc1c(F)cc(F)cc1-c1ccc(C(=O)NS(=O)(=O)c2ccc[nH]c2=O)c(N2C[C@@H](C)CC2(C)C)n1` [Compound 2496, 6-(3,5-difluoro-2-methoxy-phenyl)-N-[(2-oxo-1H-pyridin-3-yl)sulfonyl]-2-[(4S)-2,2,4-trimethylpyrrolidin-1-yl]pyridine-3-carboxamide], the EC30 under setting [2] was less than 3 µM. Turning to `COC1(C)CCN(c2nc(-c3cc(F)cc(OCC(C)C)c3)ccc2C(=O)NS(=O)(=O)c2ccn[nH]2)CC1` [Compound 774, 6-(3-fluoro-5-isobutoxy-phenyl)-2-(4-methoxy-4-methyl-1-piperidyl)-N-(1H-pyrazol-5-ylsulfonyl)pyridine-3-carboxamide], the EC30 entry under setting [1] is “+++ (“+++” means <3 uM)”. As to `CC1CN(c2ncccc2C(=O)NS(=O)(=O)c2cccc(OC3CCCC(C)(C)C3)n2)C(C)(C)C1` (centres unmarked) [Compound 2038, N—[[6-(3,3-dimethylcyclohexoxy)-2-pyridyl]sulfonyl]-2-(2,2,4-trimethylpyrrolidin-1-yl)pyridine-3-carboxamide], the 30% effect concentration (EC30) under setting [2] was less than 3 µM. Consider `CC(C)CC/C=C/c1cnc(N2CC(C)CC2(C)C)c(C(=O)NS(=O)(=O)c2cccc(N)n2)c1` (centres unmarked) [Compound 2647, N-[(6-amino-2-pyridyl)sulfonyl]-5-[(E)-5-methylhex-1-enyl]-2-(2,2,4-trimethylpyrrolidin-1-yl)pyridine-3-carboxamide], for which, under setting [2], the EC30 is less than 3 µM. Regarding `COc1ncccc1-c1cc(C(=O)NS(=O)(=O)c2cccc(N)c2)n(Cc2c(C)cc(C)cc2C)n1` [Compound 122, N-(3-aminophenyl)sulfonyl-5-(2-methoxy-3-pyridyl)-2-[(2,4,6-trimethylphenyl)methyl]pyrazole-3-carboxamide], the EC30 result under setting [1] is “++ (“++” means between 3 uM and 10 uM)”.

On to `Cc1cc(C)c(CN2Cc3c(-c4ccccc4)cccc3C2C(=O)NS(=O)(=O)c2cccc(N)n2)c(C)c1` (centres unmarked) [Compound 554, N-[(6-amino-2-pyridyl)sulfonyl]-4-phenyl-2-[(2,4,6-trimethylphenyl)methyl]isoindoline-1-carboxamide], for which, under setting [1], the EC30 entry is on record as “+++ (“+++” means <3 uM)”. Consider `CC(C)=CCOc1cccc(S(=O)(=O)NC(=O)c2cccnc2N2CC(C)CC2(C)C)n1` (centres unmarked) [Compound 2648, N—[[6-(3-methylbut-2-enoxy)-2-pyridyl]sulfonyl]-2-(2,2,4-trimethylpyrrolidin-1-yl)pyridine-3-carboxamide], for which the concentration for an effect of 30% (EC30) under setting [2] is less than 3 µM. As to `COc1cc(F)c(-c2ccc(C(=O)NS(=O)(=O)c3cccnc3N)c(N3C[C@@H](C)CC3(C)C)n2)cc1F` [Compound 2388, N-[(2-amino-3-pyridyl)sulfonyl]-6-(2,5-difluoro-4-methoxy-phenyl)-2-[(4S)-2,2,4-trimethylpyrrolidin-1-yl]pyridine-3-carboxamide], the 30% effect concentration (EC30) under setting [2] was less than 3 µM. Consider `Cc1cccc(-c2nc(C(C)(C)C)ccc2C(=O)NS(=O)(=O)c2cccc(N)n2)c1` [Compound 31, N-[(6-amino-2-pyridyl)sulfonyl]-6-tert-butyl-2-(m-tolyl)pyridine-3-carboxamide], for which, under setting [1], the EC30 result is “++ (“++” means between 3 uM and 10 uM)”.

For the compound `CC(C)Oc1ccc(-c2ccc(C(=O)NS(=O)(=O)c3cccc(N)n3)c(N3CCCC(c4ccccc4)C3)n2)cn1` (centres unmarked) [Compound 233, N-[(6-amino-2-pyridyl)sulfonyl]-6-(6-isopropoxy-3-pyridyl)-2-[-3-phenyl-1-piperidyl]pyridine-3-carboxamide], the EC30 entry under setting [1] is listed as “+++ (“+++” means <3 uM)”.

With `CC1CN(c2ncccc2C(=O)NS(=O)(=O)c2cccc(OCc3cccs3)n2)C(C)(C)C1` (centres unmarked) [Compound 2181, N—[[6-(2-thienylmethoxy)-2-pyridyl]sulfonyl]-2-(2,2,4-trimethylpyrrolidin-1-yl)pyridine-3-carboxamide], under setting [2], the EC30 was less than 3 µM. As to `COc1cccc(CCNc2cccc(S(=O)(=O)NC(=O)c3cccnc3N3CC(C)CC3(C)C)n2)c1` (centres unmarked) [Compound 2465, N—[[6-[2-(3-methoxyphenyl)ethylamino]-2-pyridyl]sulfonyl]-2-(2,2,4-trimethylpyrrolidin-1-yl)pyridine-3-carboxamide], the EC30 under setting [2] was less than 3 µM. For the compound `Cc1cc(C)c(Cn2c(C(=O)NS(=O)(=O)c3cccc(N)c3)c(C)c3ccccc32)c(C)c1` [Compound 118, N-(3-aminophenyl)sulfonyl-3-methyl-1-[(2,4,6-trimethylphenyl)methyl]indole-2-carboxamide], under setting [1], the EC30 entry was “++ (“++” means between 3 uM and 10 uM)”.

Source of the values: patent US10758534B2 (Vertex Pharmaceuticals Incorporated, priority 2014, dated 2020).
